Results as given in BindingDB's records for doi:10.1021/bi400945y (Johns Hopkins Bloomberg School of Public Health, 2013).

These compounds were tested against T1, Enoyl-acyl carrier reductase ENR (Toxoplasma gondii, UniProt Q6UCJ9) (assay: TgENR Inhibition Assay). Conditions: pH 7.5.
T1 sequence (Q6UCJ9 whole entry): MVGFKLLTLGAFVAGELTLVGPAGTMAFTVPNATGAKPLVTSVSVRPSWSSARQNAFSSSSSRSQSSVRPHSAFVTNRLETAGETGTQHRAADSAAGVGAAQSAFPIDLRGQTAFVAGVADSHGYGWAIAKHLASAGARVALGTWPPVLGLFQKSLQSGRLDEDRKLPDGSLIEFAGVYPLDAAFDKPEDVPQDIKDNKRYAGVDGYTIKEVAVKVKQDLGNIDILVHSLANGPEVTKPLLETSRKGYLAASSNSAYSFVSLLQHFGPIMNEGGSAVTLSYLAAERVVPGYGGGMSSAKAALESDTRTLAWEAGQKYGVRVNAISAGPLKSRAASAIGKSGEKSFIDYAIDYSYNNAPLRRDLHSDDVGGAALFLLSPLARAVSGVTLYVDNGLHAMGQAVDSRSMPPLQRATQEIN

Compared with `Oc1cc(Cl)ccc1Oc1ccc(NCc2ccccc2)cc1Cl`, `Oc1cc(Cl)ccc1Oc1ccc(CNc2ccccc2)cc1Cl` [5‐chloro‐2‐{2‐chloro‐4‐ [(phenylamino)methyl]phenoxy}phenol (26)] is 2.4-fold higher in IC50: 13 nM for the first, 31 nM for the second.

First: Oc1ccc(Oc2ccc(Cl)cc2O)c(Cl)c1
Second: CCc1ccc(Oc2ccc(Cl)cc2Cl)c(O)c1 [2‐(2,4‐dichlorophenoxy)‐5‐ethylphenol (11)]
The IC50 of the first is 2.7-fold lower: 3 nM for the first, 8 nM for the second. The first is the more potent here.

Compared with `N#Cc1ccccc1CNc1ccc(Oc2ccc(Cl)cc2O)c(Cl)c1`, `N#Cc1ccc(Oc2ccc(Cl)cc2Cl)c(O)c1` [4‐(2,4‐dichlorophenoxy)‐3‐hydroxybenzonitrile (19)] is 1.5-fold higher in IC50: 16 nM for the first, 24 nM for the second. The first is the more potent here.

First: CCCCc1cn(Cc2ccc(Oc3ccc(Cl)cc3O)c(Cl)c2)nn1 [2‐{4‐[(4‐butyl‐1,2,3‐triazol‐1‐yl)methyl]‐2‐ chlorophenoxy}‐5‐chlorophenol (25)]
Second: Oc1cc(Cl)ccc1Oc1ccc(Cn2ccnn2)cc1Cl [5‐chloro‐2‐[2‐chloro‐4‐(1,2,3‐triazol‐1‐ ylmethyl)phenoxy]phenol (24)]
The IC50 of the first is 1.7-fold higher: 43 nM for the first, 26 nM for the second.

Going from `Cc1cc(CC(=O)NCc2ccc(Oc3ccc(Cl)cc3O)c(Cl)c2)on1` [N‐{[3‐chloro‐4‐(4‐chloro‐2‐ hydroxyphenoxy)phenyl]methyl}‐2‐(3‐methyl‐1,2‐ oxazol‐5‐yl)acetamide (28)] to `Cc1cc(C(=O)NCc2ccc(Oc3ccc(Cl)cc3O)c(Cl)c2)no1` [N‐{[3‐chloro‐4‐(4‐chloro‐2‐ hydroxyphenoxy)phenyl]methyl}‐5‐methyl‐1,2‐oxazole‐3‐ carboxamide (29)], the IC50 rises from 33 nM to 100 nM (3-fold).
